Experimental data reported in patent US8252768B2, “Designer therapy of pancreatic tumors” (University of Miami, priority 2006, dated 2012).

What was measured:
cytidine deaminase (CD) = target: T1, cytidine deaminase (CD) (Homo sapiens, UniProt P32320); experiment: Competition assay for substrates of cytidine deaminase, crude extracts of PC-3 cells; type: biochemical; settings: competition studies, human tumor cell extracts
T1 construct: Crude extracts of PC-3 cells in culture were prepared as described above; endogenous in cells; host or cells: PC-3 cells (crude extract supernatant)
T1 sequence (P32320 whole entry): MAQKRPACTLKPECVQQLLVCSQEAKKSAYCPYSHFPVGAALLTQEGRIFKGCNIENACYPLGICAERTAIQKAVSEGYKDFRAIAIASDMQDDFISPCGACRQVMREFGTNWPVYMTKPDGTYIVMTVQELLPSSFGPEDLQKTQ
Experimental: The crude enzyme extract (the supernatant of a 10 minute 14,000×g centrifugation) was then added. When cytidine was used as substrate, assays were conducted with benzacyclouridine to inhibit uridine phosphorylases. […] After 0, 15, and 30 minutes, the reaction was stopped and denatured protein removed as above for dC Kinase. […] Aliquots were then spotted on PE cellulose TLC sheets and the reactants separated with a solvent system composed of isopropanol:HCl:H2O (170:41:39). […] The nucleosides were visualized under U.V. light and the spots cut out and counted. […] Enzyme activity was expressed as nmole formed in 30 min/mg/protein.
Competition assays to determine Substrate Specificity: Crude extracts of PC-3 cells in culture were prepared as described above. Two concentrations of crude extract were utilized for the studies as determined from the analysis of protein.
The assays were run for 0, 15, and 30 minutes.

PC-3 cells [1] = experiment: Cytotoxicity (clonogenic) assay, 72 h drug exposure; type: cell-based, human
Experimental: (§1) Toxicity and Radiation Studies: The methods using clonogenic assays described by Perez and Greer (Int. J. Rad. Oncology: Biology, Physics 12, 1523-1527, 1986—incorporated herein by reference in its entirety) were followed.
Cytotoxicity Assays: 5×10^5 cells were plated in 60 mm tissue culture dishes in 5 mls of the optimal growth media for the particular cell line in an humidified 95% air-5% CO2 atmosphere. The plates were incubated for 18-20 hours to allow for attachment and log-phase growth to begin. At the end of this period the growth medium was aspirated and replaced with […]. Four times (4×) concentrated solutions were prepared and then 1 ml was added to the plates; and growth media were then added to a total volume of […]. The plates were then incubated for 72 hours and the cells harvested by trypsinization. The cells were then serially diluted in growth medium replated into 60 mm dishes and incubated for 6 to 9 days depending on the cell line. After this incubation period, the media was aspirated and the colonies were washed twice with a PBS solution. The colonies were then stained with a 0.2% crystal violet-20% ethanol solution for 5 min. the stain was removed, the colonies were washed and air dried. A viable colony was one consisting of 25 or more normal appearing cells and was considered to have arisen from a single cell. The colonies were counted under a dissecting microscope. Two to three dilutions for every condition were plated. Dishes containing 30-300 colonies were used in the calculation and all conditions were done in duplicate.

Lewis lung carcinoma = experiment: Mean day of death (T/C), Lewis lung carcinoma in mice; type: in vivo, BD2F1 mice
Experimental: ; The efficacy of the drug, F3methyldC followed the pattern of Selectivity. The mean day of death (Tumor/Control) was 1.3, 1.6, 1.8 and 1.4 for 10, 25, 50 and 75 mg/kg H4U, respectively. […].

PC-3 cells [2] = experiment: Radiosensitization of cells in culture (Cobalt 60, clonogenic survival); type: cell-based, human; settings: PC-3 cells
Experimental: as §1
Irradiation of Cells in Culture: 2×10^5 cells were plated in 25 cm^2 flasks and grown for 18 hr at 37° C. in a humidified 5% CO2 atmosphere. The medium was then removed and replaced with medium containing the appropriate drug concentrations and incubated for 72 hrs then removed and the cell monolayers were rinsed twice with PBS. The flasks were then filled with 50 ml of radiation medium (3 parts RPMI 1640 and 7 parts PBS plus antibiotics and glutamine). The cells were then irradiated using a Cobalt 60 irradiator. The cell monolayers were placed 35 cm away from the source and irradiated for appropriate times according to the dose rate. The dose rate was calculated, at this distance, using ionization chambers. Attenuation factors due to the polystyrene flask (0.9923) and the medium (H2O=0.8715) were considered in calculating the exposure period.
After irradiation the cell monolayers were washed again, replenished with growth media, and incubated for 1½ hours. The cell monolayers were then trypsinized and the cells serially diluted, appropriate dilutions were then plated in 60 mm dishes and incubated for 7-9 days at 37° C. and CO2. At the end of this period the cells were stained with crystal violet and the colony forming ability determined by considering 25 or more normal cells as a viable colony. The viabilities were determined and the appropriate survival curves derived. All conditions were done in duplicate using two flasks treated under identical conditions.

mouse tumor = settings: in vivo; cited from earlier work
[3] = target: deoxycytidine kinase (dCK) (Homo sapiens, UniProt P27707); experiment: Competition assay for substrates of deoxycytidine kinase, crude extracts of PC-3 cells
Sequence of deoxycytidine kinase (dCK) (P27707 whole entry): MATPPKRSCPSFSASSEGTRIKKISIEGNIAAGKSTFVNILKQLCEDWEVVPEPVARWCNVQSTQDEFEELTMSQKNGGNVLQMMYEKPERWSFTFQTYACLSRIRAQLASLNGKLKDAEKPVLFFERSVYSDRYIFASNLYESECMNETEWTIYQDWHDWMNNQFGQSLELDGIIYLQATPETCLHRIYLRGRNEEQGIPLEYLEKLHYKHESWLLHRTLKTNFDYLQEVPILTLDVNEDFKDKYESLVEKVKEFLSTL

Compound: Nc1nc(=O)n([C@H]2C[C@H](O)[C@@H](CO)O2)cc1C(F)(F)F [5-TrifluoromethyldC, 5-Trifluoromethyl-2′-deoxycytidine]
- substrate for cytidine deaminase (in words) (cytidine deaminase (CD)): reasonably good substrate
- effect of thymidine on cytotoxicity (in words) (PC-3 cells [1]): antagonized by thymidine
- effect of tetrahydrouridine (H4U) on cytotoxicity / viability (in words) (PC-3 cells [1]; human, 72 h): can be antagonized by H4U
- % S (PC-3 cells [1]; nucleoside 1 μM, H4U 5 μM): 67%
- % S (PC-3 cells [1]; nucleoside 1 μM, H4U 100 μM): 100%
- % S (PC-3 cells [1]; nucleoside 1 μM, H4U 1500 μM): 100%
- % S (PC-3 cells [1]; nucleoside 10 μM, H4U 5 μM): 0.1%
- % S (PC-3 cells [1]; nucleoside 10 μM, H4U 100 μM): 2%
- % S (PC-3 cells [1]; nucleoside 10 μM, H4U 1500 μM): 3.3%
- MDD T/C (mean day of death) (Lewis lung carcinoma; H4U 10 mg/kg with F3methyldC): 1.3
- MDD T/C (mean day of death) (Lewis lung carcinoma; H4U 25 mg/kg with F3methyldC, mean ± SE): 1.6
- MDD T/C (mean day of death) (Lewis lung carcinoma; H4U 50 mg/kg with F3methyldC, mean ± SE): 1.8
- MDD T/C (mean day of death) (Lewis lung carcinoma; H4U 75 mg/kg with F3methyldC): 1.4
- radiosensitization of PC-3 cells (in words) (PC-3 cells [2]): not a radiosensitizer
- efficacy vs a mouse tumor compared with other fluorinated pyrimidines (in words) (mouse tumor): superior to 5-FUra, 5-FdU and 5-F3dT
- substrate for deoxycytidine kinase (in words) ([3]; competition studies, human tumor cell extracts): poor substrate
- inhibition at 250 µM ([3]; read-out: % Inhibition (dCK)): 0%
